Test: xn = mol fraction of the nth substance listed
Conditions: 100 kPa

C[N+](C)(C)Cc1ccccc1.[Cl-] + O
viscosity [mPa·s]
Conditions	298.15 K	303.15 K	308.15 K	313.15 K	318.15 K
x1 = 0.0001	0.895	0.806	0.723	0.627	0.541
x1 = 0.0003	0.897	0.808	0.726	0.623	0.537
x1 = 0.0005	0.901	–	0.73	0.638	0.552
